The source of these data is patent publication US20240398783A1, “Compounds and Pharmaceutical Compositions Comprising Inhibitors of Amyloid Peptide Interactions with Glycosaminoglycans, Methods of Treatment and Use Thereof” (Gismo Therapeutics, Inc., priority 2021, published 2024).

Experiment [1] has as its target T1, Amyloid-beta(1-42) oligomer binding to heparin (HS-GAG) (Homo sapiens, UniProt P05067).
T1 construct: Beta-amyloid (1-42) was purchased from rPeptide (Cat. No. A1163); purchased rPeptide A1163
Nature of the experiment: Inhibition of Amyloid-beta(1-42) oligomer binding to immobilized heparin-BSA (ELISA). Also on record: species or system porcine. The following applies: for inhibition at 30 µM: read-out: Abeta42/Heparin Activity (% inhibition class); for IC50: co-incubation on heparin-BSA plates, read-out: Abeta42/Heparin Activity (IC-50). Here is the method:
(§1) Porcine intestinal mucosa heparin conjugated to Bovine Serum Albumin (Heparin-BSA) was prepared as described (Najjam, S. et al. 1997, Cytokine 12, 1013-1022). Heparin is a sulfated HS-GAG and is commonly used as a HS-GAG in biochemical and binding assays (Lindahl, U. and Kjellen, L. (2013) ibid). Heparin-BSA at 0.01 mg/ml in Phosphate Buffered Saline (PBS; pH 7.4) was added to a 96 well polystyrene ELISA plate (NUNC Cat. No. 449824; 100 μl per well) and incubated Over Night (ON) at 4 degrees Celsius. For negative controls, ELISA plates were coated with BSA instead of Heparin-BSA, using the same procedure. Following the incubation, the plate was washed consecutively, by immersion, with de-ionized water and PBS (pH 7.4). The ELISA plate was then blocked with nonfat milk (2%, 200 μl per well) for 2 hours at Room Temperature (RT) with gentle shaking. Following blocking, the plate was washed with de-ionized water then PBS (pH 7.4). GBAPs were dissolved and diluted in PBS (pH 6.5, supplemented with 0.1% BSA) at desired concentrations, added to the ELISA plates containing immobilized Heparin-BSA (100 μl per well) and incubated for 2 hours at RT with gentle shaking. Following incubation, the plate was washed with de-ionized water and three times with PBS (pH 6.5) plus Tween. Bound GBAP was detected by a monoclonal antibody specific for that GBAP, followed by incubation with secondary antibody conjugated to horseradish peroxidase (HRP). Antibody was diluted in PBS (pH 6.5 supplemented with 1% BSA). Following each incubation with antibody, the plate was washed with de-ionized water and three times with PBS (pH 6.5) wash buffer containing 0.1% Tween. The peroxidase substrate chromogen, TMB (Dako Cat. No. S1599) was added (100 μl per well) to the ELISA plate and incubated at room temperature. After 5 minutes ELISA Stop Solution (hydrochloric acid 1N, sulfuric acid 3N) was added (100 μl per well) to stop the peroxidase catalyzed colorimetric reaction. The Optical Density of the samples was measured at 450 nm using an ELISA plate reader (BioTek Synergy H1). Following color development, the % inhibition compared to control (BSA-coated plates) was determined. IC-50s were calculated using GraphPad Prism software.
The assay was performed as described in Example 43, with the following modifications. Following to coating the plates with Heparin-BSA, plates were washed as described. The compounds were dissolved in DMSO at 10 mM final concentration and further diluted prior to assay. DMSO concentration in the screening well was up to 2%. Individual compounds were co-incubated with Beta-amyloid peptides on plates containing immobilized heparin. Beta-amyloid (1-42) was purchased from rPeptide (Cat. No. A1163) and used to prepare oligomers according to Stine et al., 2003 (J Biol Chem. 278(13):11612-22) as follows. 1,1,1,3,3,3-Hexafluoro-2-propanol- (HFIP; Sigma Cat. No. 105228)-treated Beta amyloid (1-42) was dissolved in dry DMSO (Sigma Cat. No. D2650) to 5 mM concentration. Dissolved Beta amyloid (1-42) was then diluted to 100 μM in ice-cold cell culture medium (phenol red-free Ham's F-12; Caisson Labs, Cat. No. HFL05), followed immediately by vortexing for 30 seconds, and incubating at 4 degrees Celsius for 24 h. Resulting Beta amyloid (1-42) oligomers were centrifuged at 12,000 rpm for 10 min at 4 degree Celsius to remove aggregates. Oligomers were then quickly frozen and kept in aliquots at −80 degrees Celsius. Beta-amyloid (1-40) from rPeptide (Cat No. A1153) was dissolved in DMSO, quickly frozen and kept in aliquots at −80 degrees Celsius. Beta-amyloid (1-42) oligomers or Beta-amyloid (1-40) diluted in PBS (pH 6.5, supplemented with BSA, 0.1%) were added to the ELISA plate (100 μl per well) and incubated for 2 hours at RT with gentle shaking. Following the incubation, the plate was washed with de-ionized water and three times with PBS (pH 6.5) plus Tween. […]

Experiment [2] has as its target Alpha-Synuclein Protofibril binding to heparin (HS-GAG) (Homo sapiens, UniProt P37840). Description: Inhibition of alpha-synuclein protofibril binding to immobilized heparin-BSA (ELISA). The following applies: for inhibition at 30 µM: read-out: Alpha-Synuclein/Heparin Activity (% inhibition class); for IC50: alpha-synuclein protofibrils, heparin-BSA. Also on record: species or system porcine. The procedure: as §1
The assay was performed as described in Example 43, with the following modifications. Following to coating the plates with Heparin-BSA, plates were washed as described. The compounds were dissolved in DMSO at 10 mM final concentration and further diluted prior to assay. DMSO concentration in the screening well was up to […]. Individual compounds were co-incubated with alpha-synuclein on plates containing immobilized heparin. Alpha-synuclein purchased from rPeptide (Cat. No. S1001) was used to prepare protofibrils as described in Ihse et al., 2017. Alpha-synuclein was dissolved in PBS (pH7.4) to a concentration of 140 μM (˜2 mg/ml), and incubated for 7 days at 37° C. with rotary agitation (400 rpm). Resulting fibrils were sonicated for 10 minutes in ultrasonic water bath, quickly frozen and kept in aliquots at −80 degrees Celsius. Protofibrillar alpha-synuclein diluted in PBS (pH 6.5, supplemented with BSA, 0.1%) was added to the ELISA plate (100 μl per well) and incubated for 2 hours at RT with gentle shaking. Following the incubation, the plate was washed with de-ionized water and three times with PBS (pH 6.5) plus Tween. Bound Alpha-synuclein was detected by Anti-Alpha-synuclein Monoclonal Antibody 211 (Santa Cruz Cat. No. sc-12767), followed by secondary anti-IgG antibody conjugated to HRP (R&D System, Cat. No. HAF007). Following to color development with TMB, as described in Example 43, the Optical Density of the samples was measured at 450 nm using an ELISA plate reader. Following color development, the % inhibition compared to control (no compound, DMSO control) for every compound was determined.
An example of inhibition curve is shown in FIG. 1 for Inhibitor Compounds 22 and 24. […]

Setting [3] is: read-out: Alpha-Synuclein/Heparin Activity (IC-50).
The mark [4] stands for this setting: Alpha-Synuclein/Heparin Activity (IC-50).
The mark [5] stands for this setting: 30 μM compound, Abeta(1-42) oligomers, heparin-BSA.

Each structure is given as a SMILES string. Structures can show the parent of a compound that is named as a salt. Where two headings read alike, the source gives them in different places.

T1 sequence (P05067 672-713): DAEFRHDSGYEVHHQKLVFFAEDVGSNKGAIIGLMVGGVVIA

As for `C/C(=N\Nc1ncnc2ccccc12)c1ccc(-n2cc(C)nc2C)nc1` [Compound 19, (E)-4-(2-(1-(6-(2,4-dimethyl-1H-imidazol-1-yl)pyridin-3-yl)ethylidene)hydrazineyl)quinazoline], the inhibition at 30 µM in experiment [1] and in experiment [2] was below 30% each time.

Consider `CN1CCN(c2cc(Nc3ccnc4cc(Cl)ccc34)ccn2)CC1` [Compound 20, 7-chloro-N-(2-(4-methylpiperazin-1-yl)pyridin-4-yl)quinolin-4-amine], for which the inhibition at 30 µM in experiment [1] and in experiment [2] was below 30% throughout.

As for `C/C(=N\Nc1ncnc2cc(F)ccc12)c1ccc(-n2cnc(C)c2C)nc1` [Compound 21, (E)-4-(2-(1-(6-(4,5-dimethyl-1H-imidazol-1-yl)pyridin-3-yl)ethylidene)hydrazineyl)-7-fluoroquinazoline], the IC50 turned out to be 9.5 µM in experiment [1] (Abeta(1-42) oligomers) and 2.06 µM in experiment [2] (setting [3]).

Turning to `CC(=NNc1ccnc2cc(Cl)ccc12)c1ccc(-n2cnc(C)c2C)nc1` [Compound 22, 7-chloro-4-(2-(1-(6-(4,5-dimethyl-1H-imidazol-1-yl)pyridin-3-yl)ethylidene)hydrazineyl)quinoline], in experiment [1], the inhibition at 30 µM is above 30%. Besides, the IC50 in experiment [2] (setting [4]) amounted to 2.87 µM.

On to `CC(=NNc1ccnc2cc(Cl)ccc12)c1ccc(-n2cc[n+](C)c2)nc1` [Compound 23, 1-(5-(1-(2-(7-chloroquinolin-4-yl)hydrazineylidene)ethyl)pyridin-2-yl)-3-methyl-1H-imidazol-3-ium iodide], for which the inhibition at 30 µM in experiment [1] (setting [5]) and in experiment [2] was below 30% each time.

Consider `C/C(=N\Nc1nncc2cc(Cl)ccc12)c1ccc(-n2cc(C)nc2C)nc1` [Compound 24, (E)-6-chloro-1-(2-(1-(6-(2,4-dimethyl-1H-imidazol-1-yl)pyridin-3-yl)ethylidene)hydrazineyl)phthalazine], for which the IC50 in experiment [1] (Abeta(1-42) oligomers) came to 16.9 µM; in experiment [2] (setting [3]), 6.44 µM.

Consider `Cc1ncn(-c2ccc(Nc3ncnc4cc(Cl)ccc34)cn2)c1C` [Compound 25, 7-chloro-N-(6-(4,5-dimethyl-1H-imidazol-1-yl)pyridin-3-yl)quinazolin-4-amine], for which the values for the IC50 in experiment [1] (Abeta(1-42) oligomers) and in experiment [2] (setting [4]) were 9.9 µM and 3.83 µM, respectively.

On to `C/C(=N\Nc1ncnc2cc(F)ccc12)c1ccc(-n2cc[n+](C)c2)nc1` [Compound 26, (E)-1-(5-(1-(2-(7-fluoroquinazolin-4-yl)hydrazineylidene)ethyl)pyridin-2-yl)-3-methyl-1H-imidazol-3-ium phosphoric acid salt], for which the inhibition at 30 µM in experiment [1] and in experiment [2] was above 30% each time.

Consider `C/C(=N\Nc1ncnc2cc(Cl)ccc12)c1ccc(-n2cc(C)nc2C)nc1` [Compound 27, (E)-7-chloro-4-(2-(1-(6-(2,4-dimethyl-1H-imidazol-1-yl)pyridin-3-yl)ethylidene)hydrazineyl)quinazoline hydrochloride], for which the inhibition at 30 µM in experiment [1] was above 30%. In addition, the IC50 in experiment [2] (setting [3]) worked out at 1.95 µM.

As for `CC(=NNc1ncnc2cc(Cl)ccc12)c1ccnc(-n2cnc(C)c2C)c1` [Compound 28, 7-chloro-4-(2-(1-(2-(4,5-dimethyl-1H-imidazol-1-yl)pyridin-4-yl)ethylidene)hydrazineyl)quinazoline], the values for the IC50 in experiment [1] (Abeta(1-42) oligomers) and in experiment [2] (setting [3]) were 12.9 µM and 3.23 µM, respectively.

As for `C/C(=N\Nc1ncnc2cc(Cl)ccc12)c1cccc(CN(C)C)c1` [Compound 29, 1-(3-(1-(2-(7-chloroquinazolin-4-yl)hydrazineylidene)ethyl)phenyl)—N,N-dimethylmethanamine], the inhibition at 30 µM in experiment [1] (setting [5]) and in experiment [2] was above 30% each time.

Regarding `C/C(=N\Nc1ncnc2cc(Cl)ccc12)c1cccc(N2CCN(C)CC2)c1` [Compound 30, 7-chloro-4-(2-(1-(3-(4-methylpiperazin-1-yl)phenyl)ethylidene)hydrazineyl)quinazoline], the inhibition at 30 µM in experiment [1] and in experiment [2] was above 30% in each case.

For `COc1cc(Nc2nncc3cc(Cl)ccc23)cnc1-n1cnc(C)c1C` [Compound 31, 6-chloro-N-(6-(4,5-dimethyl-1H-imidazol-1-yl)-5-methoxypyridin-3-yl)phthalazin-1-amine phosphoric acid salt], the inhibition at 30 µM in experiment [1] (setting [5]) and in experiment [2] was below 30% in each case.

For `C/C(=N\Nc1ncnc2cc(Cl)ccc12)c1ccc(-n2cncn2)nc1` [Compound 32, (E)-4-(2-(1-(6-(1H-1,2,4-triazol-1-yl)pyridin-3-yl)ethylidene)hydrazineyl)-7-chloroquinazoline], the inhibition at 30 µM in experiment [1] (setting [5]) is below 30%; in experiment [2], above 30%.

On to `COc1cc(Nc2cncc3cc(Cl)ccc23)cnc1-n1cnc(C)c1C` [Compound 33, 7-chloro-N-(6-(4,5-dimethyl-1H-imidazol-1-yl)-5-methoxypyridin-3-yl)isoquinolin-4-amine phosphoric acid salt], for which the inhibition at 30 µM in experiment [1] (setting [5]) and in experiment [2] was below 30% each time.

`Clc1ccc2c(Nc3ccc(-n4cncn4)nc3)ncnc2c1` [Compound 34, N-(6-(1H-1,2,4-triazol-1-yl)pyridin-3-yl)-7-chloroquinazolin-4-amine phosphoric acid salt]: the values for the IC50 in experiment [1] (Abeta(1-42) oligomers) and in experiment [2] (setting [4]) were 9.93 µM and 5.06 µM, respectively.

In the case of `Fc1cc(/C=N/Nc2ccnc3cc(Cl)ccc23)ccc1-n1ccnc1` [Compound 35, (E)-7-chloro-4-(2-(3-fluoro-4-(1H-imidazol-1-yl)benzylidene)hydrazineyl)quinoline hydrochloride], the IC50 in experiment [1] (Abeta(1-42) oligomers) is 15.4 µM. Besides, the inhibition at 30 µM in experiment [2] was below 30%.

As to `CC(=NNc1ccnc2cc(Cl)ccc12)c1ccc(-n2ccnc2)cc1` [Compound 36, 4-(2-(1-(4-(1H-imidazol-1-yl)phenyl)ethylidene)hydrazineyl)-7-chloroquinoline phosphate], the results for the IC50 in experiment [1] (Abeta(1-42) oligomers) and in experiment [2] (setting [4]) were 14.2 µM and 4.17 µM, respectively.
